In US20080207502A1, “Anti-Angiogenic Peptides and Methods of Use Thereof” (SOPHERION THERAPEUTICS, INC., priority 2004, published 2008):

How the values were obtained:
B16 melanoma tumor = assay: Subcutaneous B16 melanoma tumor model in vivo; set-up: species or system mouse; details: vs untreated controls
Protocol: Because of the importance of the angiogenic process for tumorigenesis, miniproteins as described herein, were hypothesized to show good anti-tumor activity. The peptides of the invention were tested in an in vivo model of anti-tumor activity. This model compares the growth of sub cutaneous B16 melanoma tumor in vivo either untreated or treated with various amount of miniproteins described in this application. This model is widely accepted in the art as a model to test the anti-tumor activity of compounds that inhibit tumor growth because they have anti-angiogenic activity.
Male C57BL/6 mice were obtained with a mean body weight of 20±2 g. Mouse B16-F1 melanoma cells were implanted subcutaneously (5×10^5 cell per animal). Peptides (formulated in water) were administered ip daily at the amount indicated starting the day after cells injection. In general, tumors became palpable around 9 days after injection of cells. Tumor were then measured every 2 days.

[1] = Heparin binding activity by liquid chromatography on Hi Trap Heparin HP column (NaCl elution); details: step gradient 500-1000 mM NaCl in 10 mM NaH2PO4 pH 7
Description: Liquid chromatography was used to determine the relative levels of heparin binding activity of the individual heparin binding domains and of the anti-angiogenic miniproteins that contains them. In this assay, the strength of the heparin binding activity is proportional to the amount of NaCl that is required to elute the peptide bound to the heparin column. Peptides with low binding activity are eluted with lower NaCl concentration, whereas higher concentrations of NaCl are required for peptides with higher binding activity.
Hi Trap Heparin HP column (1 ml, Amersham Biosciences) was equilibrated with 10 column volumes (CV) of equilibration (EQ) buffer=10 mM NaH2PO4pH 7. All buffers were loaded onto columns via syringes. 500 μl fractions are collected (flow rate=1 ml/minute). 500 μg of peptide (1 mg/ml, resuspended in EQ buffer) was added to each column and the flow through was collected for analysis. The columns were then washed with 3 CV of EQ buffer. Peptides are then eluted with a step gradient of 500, 625, 750, 875 mM NaCl in EQ buffer, 2 CV per each step. A final step of 3 CV of 1000 mM NaCl in EQ buffer was collected in 500 μl fractions. The A210 nm was measured using EQ and elution buffers as blanks.

L1210 murine leukemia = L1210 murine leukemia intravenous model in vivo; set-up: species or system mouse; details: dosed IP, DBA/2 mice, FIG. 15a
Protocol: Antitumor activity of test peptides, administered intraperitoneally (IP), were evaluated against L1210 murine leukemia cells implanted intravenously (IV) in DBA/2 mice.
Studies generally consisted of randomly-assigned groups of 8 mice per group, which were inoculated IV with 1×10^5 cells per mouse from an in vivo leukemia cell line. In addition to groups tested with test peptides, studies usually included a vehicle-treated control group and a positive control group treated with an agent known to be active in the L1210 leukemia model. Starting one day after tumor inoculation (inoculation day defined as Day 0), mice were treated IP with either vehicle or test peptides in various schedules. Generally this consisted of treatment every other day for approximately 1 week (e.g., Days 1, 3, 5 and 7). A positive agent (e.g., cyclophosphamide) was usually given as a single IP injection on Day 1. All dosing solutions were prepared on each day of treatment. Survival was monitored daily and body weights were measured twice weekly. Anti-tumor activity was assessed by the increase in lifespan of the treated groups in comparison to the vehicle-treated control group. Studies with the L1210 leukemia model were limited to 30 days.

[2] = test system: Human Umbilical Vein Endothelial Cells; assay: bFGF-mediated survival/proliferation of human umbilical vein endothelial cells (WST1); format: cell-based; details: for inhibition of bFGF mediated survival: comparison of several peptides, FIG. 10; for potency in blocking bFGF stimulation: compared with ST100,068, FIG. 6
Protocol: (§1) The anti-angiogenic activities of the peptides were tested by measuring the level of inhibition of VEGF and bFGF mediated survival/proliferation of Bovine Retinal Endothelial Cells (BRE), Human Dermal Microvasculature Endothelial Cells, and Human Umbilical Vein Endothelial Cells, all of which are standard cell lines used to test anti-angiogenic compounds.
Human umbilical cord endothelial (HUVEC) cells were maintained in Cambrex EGM-2MV media. On day one, cells were starved overnight in 1% FBS in M200 media (Cascade Biologicals). The morning after, the media were replaced with serum-free media (control) or media containing 25 ng/ml of human VEGF165 and the various peptides to final concentrations as described.
(§2) In all cases, after 72 hours incubation, the amount of live cells in each well was measured with the WST1 assay (Roche).

[3] = test system: mouse leukemia L1210 cells; assay: Tumor cell proliferation (WST-1), L1210; format: cell-based; details: FIG. 11
Protocol: Peptides to be tested were prepared at a stock concentration of 10 mM in sterile phosphate buffered saline. Cancer cell lines obtained from the American Type Culture Collection (MG-63, HT1080, A498, BxPC3, 786-0, PC-3, B16F1, B16F10, P388D1, Jurkat, MOLT4, THP-1, U-937, L1210, RPMI 8226, NCI H929, U266B1, K562) were cultured under appropriate conditions as described in the literature. Cell culture media and reagents were obtained from ATCC (Manassas, Va.), Invitrogen (Carlsbad, Calif.) or Mediatech (Herndon, Va.). Exponentially growing cultures were used for cell proliferation assays. Adherent cells were plated at a concentration of 100000 cells per milliter in growth media overnight (18-24 h) and treated the next day in a low serum media (growth media with 1% FBS for MG-63, HT1080, A498, BxPC3, PC-3, B16F1, B16F10. 786-0 cells were treated in media with 5% FBS). Suspension cell lines (P388D1, Jurkat, MOLT4, THP-1, U-937, L1210, RPMI 8226, NCI H929, U266B1, and K562) were diluted to a concentration of 100,000 cells per ml and treated on the same day with peptides. Peptides were diluted in treatment media and cells were treated for 48 or 72 hours depending on the cell line. Each dose was tested in triplicate for each experiment, and experiments were repeated for a minimum of three discrete times. After incubation, the relative number of cells was determined using WST-1 (Roche Applied Science). A 9.5 μl aliquot of WST-1 was added to each well. The plate was immediately read at 440 nm using a Bio-Tek PowerWave XS microplate reader, incubated for 2-3 hours at 37° C. and then read again. Cell proliferation was determined as the percent of the control cell proliferation. The absorbance of each well at time 0 was subtracted from the value of the final reading. Afterwards the blank values were averaged and subtracted from each test and control value. Finally, each test absorbance was divided by the average of the control absorbances and multiplied by 100 to obtain the percent of control. […]

[4] = test system: binding of radiolabeled VEGF to endothelial cells; assay: Inhibition of binding of radiolabeled VEGF to endothelial cells; details: concentration of 30 μM; for inhibition of VEGF binding: FIG. 7; for VEGF binding inhibition: legend of FIG. 7
Description: The activity of the peptides SEQ ID NO.: 1 and SEQ ID NO.: 2 in blocking the binding of radiolabeled VEGF to endothelial cells is shown in FIG. 7.

[5] = test system: Bovine Retinal Endothelial Cells (BRE); assay: VEGF-mediated survival/proliferation of BRE cells (WST1); format: cell-based
Protocol: as §1
Bovine retinal endothelial (BRE) cells were maintained in Cambrex EG2 media. For non-adherent cell assays, on day one cells were starved for either 6 hours or overnight, then trypsinized and plated in 96-well plates in 100 μl of Optimem plus 1% fetal bovine serum (FBS). One hundred μl of Optimem plus 1% FBS was added to the wells containing, where appropriate, VEGF to a final concentration of 25 ng/ml, and the various peptides to final concentrations as described. For adherent cells, cells were plated in 96-well plates in complete media, allowed to adhere overnight, washed in starvation media (Optimem plus 1% FBS) and then starved during the day. At the end of the day, 100 μl of Optimem plus 1% FBS was added to the wells containing, where appropriate, VEGF to a final concentration of 25 ng/ml and the various peptides to final concentrations as described.
as §2

[6] = Biological activity of D-amino acid versions of ST100,038 (assay not specified); details: ST100,045 tested against ST100,059 and a control
Protocol: D-amino acid peptides can be made by generating a D-amino acid peptide with the same sequence as a L-amino acid peptide or by preparing a retro inverso form of a peptide. ST100,045 (SEQ ID NO.: 31) has the same sequence as ST100,038 (SEQ ID NO.: 29) was tested against ST100,059 (SEQ ID NO.: 30) which is the retro inverso version of ST100,038 and a control.

ATSLPPHSSQSPGGGPPAARGRRAARGRR (listed as Homo sapiens) [ST100,062]
inhibition of tumor growth (B16 melanoma tumor; 20 mg/kg daily IP, FIG. 12): clearly inhibit tumor growth

RLGYVVSDGRGDYPKKKRRGRAARRGRAA [ST100,065]
[NaCl] for elution [1]: 750 mM
mice (cured mice) survived longer than 30 days (L1210 murine leukemia): Sixty to eighty percent
survival (L1210 murine leukemia): statistically significant increases in survival

RKRAALRARKRAARARKRAARR (RKRAARARKRAARARKRAARR; listed as Homo sapiens) [ST100,083]
[NaCl] for elution [1]: 1100 mM

RRGRAARRGRAAKKK (listed as Homo sapiens) [ST100,078]
inhibition of bFGF mediated survival [2]: not as potent
blocked cell proliferation or induced cell death [3]: Neither

PYAGRGDSVVYGLGGGPGAARGRRAARGRR [ST100,033]
inhibition of VEGF binding [4]: ~100%
VEGF binding inhibition [4]: completely abolished VEGF binding

RRGRAAKKKRRGRAAKKKPSQSSHPPLSTA (listed as Homo sapiens) [ST100,072]
[NaCl] for elution [1]: 1000 mM
potency in blocking bFGF stimulation [2]: more potent in blocking bFGF stimulation

RKKAARARKKAARARKKAARRLGYVVSDGRGDYP (listed as Homo sapiens) [ST100,081]
[NaCl] for elution [1]: 1000 mM

RRGRAARRGRAAKKKPSQSSHPPLSTA (listed as Homo sapiens) [ST100,068]
potency in blocking VEGF stimulation ([5]; compared with ST100,059, FIG. 5): more potent in blocking VEGF stimulation
inhibition of VEGF stimulation ([5]; increasing doses, FIG. 5): inhibited with increasing doses
inhibition of tumor growth (B16 melanoma tumor; 20 mg/kg and 40 mg/kg daily IP, FIG. 13): able to inhibit tumor growth

ATSLPPHSSQSP (listed as Homo sapiens) [ST100,038]
Concentrations that completely abolished the VEGF-induced increase in WST-1 value ([5]; VEGF 25 ng/ml, 72 hours, FIG. 4): above 40 μM

ATSLPPHSSQSP (listed as Homo sapiens) [ST100,045]
biologically active [6]: Only the retro inverso form of ST100,038, (ST100,059; SEQ ID NO.: 30) was found to be biologically active

RRGRAARRGRAARRGRAAKKKPSQSSHPPLSTA (listed as Homo sapiens) [ST100,073]
[NaCl] for elution [1]: 1000 mM
potency in blocking bFGF stimulation [2]: more potent in blocking bFGF stimulation
inhibition of bFGF mediated survival [2]: the most active in inhibiting bFGF stimulation
inhibition of tumor growth (B16 melanoma tumor; 20 mg/kg daily IP, FIG. 14): able to inhibit tumor growth

RRGRAAKKKRRGRAAKKK (listed as Homo sapiens) [ST100,082]
[NaCl] for elution [1]: 1000 mM

RLGYVVSDGRGDYP (listed as Homo sapiens) [ST100,077]
blocked cell proliferation or induced cell death [3]: Neither

RAAKKRKRAAKKRARAAKKRLGYVVSDGRGDYP (RAAKKRARAAKKRARAAKKRLGYVVSDGRGDYP; listed as Homo sapiens) [ST100,079]
[NaCl] for elution [1]: 1000 mM

RRGRAAKKKRRGRAAKKKRLGYVVSDGRGDYP [ST100,074]
[NaCl] for elution [1]: 1000 mM
inhibition of bFGF mediated survival [2]: the most active in inhibiting bFGF stimulation
mice (cured mice) survived longer than 30 days (L1210 murine leukemia): Sixty to eighty percent
survival (L1210 murine leukemia): statistically significant increases in survival

YDGRGDSVVYGLKKKAARGRRAARGRR [ST100,032]
inhibition of VEGF binding [4]: ~100%
VEGF binding inhibition [4]: completely abolished VEGF binding
